# Numbers after ± are expanded uncertainties.
# Details: Liquid, Chromatography
structure (smiles),measurement,setting,value
O=C=O [carbon dioxide],vapor or sublimation pressure,223.14 K,682.9 ± 53 kPa
same,vapor or sublimation pressure,298.17 K,6436.9 ± 500 kPa
same,vapor or sublimation pressure,303.16 K,7210.5 ± 560 kPa
